Measurements as given in patent publication US20220089592A1, “IMIDAZO[1,2-A]PYRIDINYL DERIVATIVES AS IRAK4 INHIBITORS” (priority 2019, published 2022).
Where a name gives a salt, the structure may show the parent alone.

Target: T1, IRAK4 (Homo sapiens, UniProt Q9NWZ3)
T1 sequence (Q9NWZ3 1-460): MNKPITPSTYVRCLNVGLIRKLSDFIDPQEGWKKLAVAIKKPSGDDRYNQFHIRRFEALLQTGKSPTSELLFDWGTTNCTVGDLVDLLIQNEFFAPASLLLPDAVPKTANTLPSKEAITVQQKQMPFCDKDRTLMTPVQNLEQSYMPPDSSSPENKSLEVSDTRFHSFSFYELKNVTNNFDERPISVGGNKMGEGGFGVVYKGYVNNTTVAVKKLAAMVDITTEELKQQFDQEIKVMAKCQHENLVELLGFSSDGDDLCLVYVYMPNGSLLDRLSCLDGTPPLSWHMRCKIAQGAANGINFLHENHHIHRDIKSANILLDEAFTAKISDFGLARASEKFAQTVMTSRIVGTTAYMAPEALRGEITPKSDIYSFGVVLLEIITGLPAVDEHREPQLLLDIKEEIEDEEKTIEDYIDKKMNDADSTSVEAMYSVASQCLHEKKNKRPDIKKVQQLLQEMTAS
Test: 2-hour 1 mM ATP IRAK4 Biochemical assay (as above, but with 100 pM IRAK4 and 1 mM ATP)
Settings: IRAK4 MSD BIOCHEMICAL (1 mM ATP) IC50 (μM), 100 pM IRAK4, 2 hours
Outline: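 Run with 100 pM IRAK4 and 1 mM ATP for 2 hours, quenched with EDTA pH 8. Phosphorylated biotinylated peptide captured on streptavidin MSD plates and detected with anti-phosphothreonine antibody plus Sulfo-Tag secondary by electrochemiluminescence.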

Compound: COc1nc(NC(=O)c2cccc(C(F)F)n2)cn2cc(C34CC(OC)(C3)C4)nc12 [Example 553, 6-(difluoromethyl)-N-(8-methoxy-2-(3-methoxybicyclo[1.1.1]pentan-1-yl)imidazo[1,2-a]pyrazin-6-yl)picolinamide 2,2,2-trifluoroacetate]
- IC50: 0.011 µM

Compound: CCOc1nc2nc(C34COC(C)(C3)C4)cn2cc1NC(=O)c1cccc(C(F)F)n1 [Example 344, 6-(difluoromethyl)-N-(7-ethoxy-2-(1-methyl-2-oxabicyclo[2.1.1]hexan-4-yl)imidazo[1,2-a]pyrimidin-6-yl)picolinamide]
- IC50: 0.001 µM

Compound: CC(C)Oc1nc2nc(C34COC(C)(C3)C4)cn2cc1NC(=O)c1cccc(C2CCOC2)n1 (centres unmarked) [Example 493, N-(7-isopropoxy-2-(1-methyl-2-oxabicyclo[2.1.1]hexan-4-yl)imidazo[1,2-a]pyrimidin-6-yl)-6-(tetrahydrofuran-3-yl)picolinamide]
- IC50: 0.001 µM

Compound: CC12CC(c3cn4cc(NC(=O)c5cccc(C(F)F)n5)ncc4n3)(CO1)C2 [Example 274, 6-(difluoromethyl)-N-(2-(1-methyl-2-oxabicyclo[2.1.1]hexan-4-yl)imidazo[1,2-a]pyrazin-6-yl)picolinamide]
- IC50: 0.068 µM

Compound: CCOc1nc(NC(=O)c2cccc(C)n2)cn2cc(C3CCOCC3)nc12 [Example 474, N-(8-ethoxy-2-(tetrahydro-2H-pyran-4-yl)imidazo[1,2-a]pyrazin-6-yl)-6-methylpicolinamide 2,2,2-trifluoroacetate]
- IC50: 0.025 µM

Compound: COc1nc(NC(=O)c2cccc(C(F)F)n2)cn2cc(C34COC(C)(C3)C4)nc12 [Example 554, 6-(difluoromethyl)-N-(8-methoxy-2-(1-methyl-2-oxabicyclo[2.1.1]hexan-4-yl)imidazo[1,2-a]pyrazin-6-yl)picolinamide 2,2,2-trifluoroacetate]
- IC50: 0.011 µM

Compound: CCn1ccc(C(=O)Nc2cn3cc(C4CCOCC4)nc3c(OC)n2)n1 [Example 463, 1-ethyl-N-(8-methoxy-2-(tetrahydro-2H-pyran-4-yl)imidazo[1,2-a]pyrazin-6-yl)-1H-pyrazole-3-carboxamide 2,2,2-trifluoroacetate]
- IC50: 0.104 µM

Compound: COc1ccccc1C(=O)Nc1cn2cc(C34COC(C)(C3)C4)nc2c(F)c1OC(C)C [Example 424, N-(8-fluoro-7-isopropoxy-2-(1-methyl-2-oxabicyclo[2.1.1]hexan-4-yl)imidazo[1,2-a]pyridin-6-yl)-2-methoxybenzamide 2,2,2-trifluoroacetate]
- IC50: 0.017 µM

Compound: CC(C)Oc1nc2nc(C34COC(C)(C3)C4)c(Cl)n2cc1NC(=O)c1cccc(C(F)F)n1 [Example 576, N-(3-chloro-7-isopropoxy-2-(1-methyl-2-oxabicyclo[2.1.1]hexan-4-yl)imidazo[1,2-a]pyrimidine-6-yl)-6-(difluoromethyl)picolinamide 2,2,2-trifluoroacetate]
- IC50: 0.199 µM

Compound: CC(C)(O)c1cc2nc(C3CCOCC3)cn2cc1NC(=O)c1cccc(C(F)F)n1 [Example 292, 6-(difluoromethyl)-N-(7-(2-hydroxypropan-2-yl)-2-(tetrahydro-2H-pyran-4-yl)imidazo[1,2-a]pyridin-6-yl)picolinamide]
- IC50: 0.001 µM

Compound: CCOc1cc2nc(C(C)(C)O)c(Cl)n2cc1NC(=O)c1cccc(C(F)F)n1 [Example 354, N-(3-chloro-7-ethoxy-2-(2-hydroxypropan-2-yl)imidazo[1,2-a]pyridin-6-yl)-6-(difluoromethyl)picolinamide]
- IC50: 0.438 µM

Compound: O=C(Nc1cn2cc(C3CCOCC3)nc2cc1OCC1CC(F)(F)C1)c1cccc(C(F)F)n1 [Example 191, N-(7-((3,3-difluorocyclobutyl)methoxy)-2-(tetrahydro-2H-pyran-4-yl)imidazo[1,2-a]pyridin-6-yl)-6-(difluoromethyl)picolinamide]
- IC50: 0.002 µM

Compound: CCOc1nc2nc(C3CCOCC3)cn2cc1NC(=O)c1ccc2c(n1)CCC2 [Example 570, N-(7-ethoxy-2-(tetrahydro-2H-pyran-4-yl)imidazo[1,2-a]pyrimidin-6-yl)-6,7-dihydro-5H-cyclopenta[b]pyridine-2-carboxamide hydrochloride]
- IC50: 0.005 µM

Compound: CC(C)Oc1c(NC(=O)c2ccn(C(C)C)n2)cn2cc(C34COC(C)(C3)C4)nc2c1F [Example 546, N-(8-fluoro-7-isopropoxy-2-(1-methyl-2-oxabicyclo[2.1.1]hexan-4-yl)imidazo[1,2-a]pyridin-6-yl)-1-isopropyl-1H-pyrazole-3-carboxamide 2,2,2-trifluoroacetate]
- IC50: 0.001 µM

Compound: COc1c(F)cccc1C(=O)Nc1cn2cc(C34CCC(C)(C3)OC4)nc2c(OC)n1 (centres unmarked) [Example 466, 3-fluoro-2-methoxy-N-(8-methoxy-2-(1-methyl-2-oxabicyclo[2.2.1]heptan-4-yl)imidazo[1,2-a]pyrazin-6-yl)benzamide 2,2,2-trifluoroacetate]
- IC50: 0.059 µM

Compound: O=C(Nc1cn2cc(C3CCOCC3)nc2cn1)c1csc(C2CC2)n1 [Example 332, 2-cyclopropyl-N-(2-(tetrahydro-2H-pyran-4-yl)imidazo[1,2-a]pyrazin-6-yl)thiazole-4-carboxamide]
- IC50: 0.108 µM

Compound: CC(C)Oc1cc2nc(C(F)F)cn2cc1NC(=O)c1ccn(C(F)F)n1 [Example 267, 1-(difluoromethyl)-N-(2-(difluoromethyl)-7-isopropoxyimidazo[1,2-a]pyridin-6-yl)-1H-pyrazole-3-carboxamide]
- IC50: 0.002 µM

Compound: O=C(Nc1cn2cc(C3CCOCC3)nc2c(OCC(F)(F)F)n1)c1cccc(C(F)F)n1 [Example 303, 6-(difluoromethyl)-N-(2-(tetrahydro-2H-pyran-4-yl)-8-(2,2,2-trifluoroethoxy)imidazo[1,2-a]pyrazin-6-yl)picolinamide]
- IC50: 0.038 µM

Compound: Cc1cc(NC(=O)c2ccn(C)n2)cn2cc(C34COC(C)(C3)C4)nc12 [Example 409, 1-methyl-N-(8-methyl-2-(1-methyl-2-oxabicyclo[2.1.1]hexan-4-yl)imidazo[1,2-a]pyridin-6-yl)-1H-pyrazole-3-carboxamide 2,2,2-trifluoroacetate]
- IC50: 0.534 µM

Compound: COC(=O)C(C)(C)c1cn2cc(NC(=O)c3cccc(C(F)F)n3)c(OC(C)C)cc2n1 [Example 261, methyl 2-(6-(6-(difluoromethyl)picolinamido)-7-isopropoxyimidazo[1,2-a]pyridin-2-yl)-2-methylpropanoate]
- IC50: 0.002 µM

Compound: COc1ccccc1C(=O)Nc1cn2cc(C34COC(C)(C3)C4)nc2nc1OC(C)C [Example 488, N-(7-isopropoxy-2-(1-methyl-2-oxabicyclo[2.1.1]hexan-4-yl)imidazo[1,2-a]pyrimidin-6-yl)-2-methoxybenzamide]
- IC50: 0.002 µM

Compound: CC(C)Oc1c(NC(=O)c2coc(C3CC3)n2)cn2cc(C34COC(C)(C3)C4)nc2c1F [Example 431, 2-cyclopropyl-N-(8-fluoro-7-isopropoxy-2-(1-methyl-2-oxabicyclo[2.1.1]hexan-4-yl)imidazo[1,2-a]pyridin-6-yl)oxazole-4-carboxamide]
- IC50: 0.001 µM

Compound: COc1nc(NC(=O)c2cccc(C(F)F)n2)cn2cc(C3C4COCC43)nc12 (centres unmarked) [Example 551, N-(2-(3-oxabicyclo[3.1.0]hexan-6-yl)-8-methoxyimidazo[1,2-a]pyrazin-6-yl)-6-(difluoromethyl)picolinamide 2,2,2-trifluoroactetate]
- IC50: 0.026 µM

Compound: COc1nc(NC(=O)c2coc(C3CC3)n2)cn2cc(C34CCC(C)(C3)OC4)nc12 (centres unmarked) [Example 472, 2-cyclopropyl-N-(8-methoxy-2-(1-methyl-2-oxabicyclo[2.2.1]heptan-4-yl)imidazo[1,2-a]pyrazin-6-yl)oxazole-4-carboxamide 2,2,2-trifluoroacetate]
- IC50: 0.015 µM

Compound: CC(C)Oc1nc2nc(C34COC(C)(C3)C4)cn2cc1NC(=O)c1cccc2ncnn12 [Example 348, N-(7-isopropoxy-2-(1-methyl-2-oxabicyclo[2.1.1]hexan-4-yl)imidazo[1,2-a]pyrimidin-6-yl)-[1,2,4]triazolo[1,5-a]pyridine-5-carboxamide]
- IC50: 0.001 µM

Compound: Cc1cc(NC(=O)c2cccc3ccnn23)cn2cc(C34COC(C)(C3)C4)nc12 [Example 408, N-(8-methyl-2-(1-methyl-2-oxabicyclo[2.1.1]hexan-4-yl)imidazo[1,2-a]pyridin-6-yl)pyrazolo[1,5-a]pyridine-7-carboxamide 2,2,2-trifluoroacetate]
- IC50: 0.025 µM

Compound: COc1ccccc1C(=O)Nc1cn2cc(C34CC(C#N)(C3)C4)nc2cc1OC(C)C [Example 311, N-(2-(3-cyanobicyclo[1.1.1]pentan-1-yl)-7-isopropoxyimidazo[1,2-a]pyridin-6-yl)-2-methoxybenzamide]
- IC50: 0.006 µM

Compound: CCOc1cc2nc(C3C4COCC43)cn2cc1NC(=O)c1csc(C(F)(F)F)n1 (centres unmarked) [Example 377, N-(2-(3-oxabicyclo[3.1.0]hexan-6-yl)-7-ethoxyimidazo[1,2-a]pyridin-6-yl)-2-(trifluoromethyl)thiazole-4-carboxamide 2,2,2-trifluoroacetate]
- IC50: 0.001 µM

Compound: COC(C)c1cc2nc(C3CCOCC3)cn2cc1NC(=O)c1cccc(C(F)F)n1 (centres unmarked) [Example 313, 6-(difluoromethyl)-N-(7-(1-methoxyethyl)-2-(tetrahydro-2H-pyran-4-yl)imidazo[1,2-a]pyridin-6-yl)picolinamide]
- IC50: 0.067 µM
